Values after ≈ are worked out from the molar mass of the structure shown.

One test relates to Pseudomonas aeruginosa. Description: Antimicrobial activity against Pseudomonas aeruginosa isolate 1681c from fibrosis patient by Etest.
Conditions: not given
The test is classed as functional.
GENTAMICIN: the MIC came to 32 µg/mL.

The next test has as its system Pseudomonas aeruginosa. Description: Antimicrobial activity against Pseudomonas aeruginosa isolate 1665 from fibrosis patient by Etest. It is filed as functional.
Conditions: not given
For GENTAMICIN, the MIC is 16 µg/mL.

Take `O=C(O)c1cn(C2CC2)c2cc(N3CCNCC3)c(F)cc2c1=O` [CIPROFLOXACIN]: the MIC was determined as 4 µg/mL (≈ 12.1 µM).

In another test the test system is Pseudomonas aeruginosa. Kind of test: Antimicrobial activity against Pseudomonas aeruginosa isolate 17112 from fibrosis patient by Etest. It is filed as functional.
Conditions: not given
In the case of GENTAMICIN, the MIC came to 1 µg/mL.

In another test the test system is Pseudomonas aeruginosa. Description: Antimicrobial activity against Pseudomonas aeruginosa isolate 14169c from fibrosis patient by Etest. The test is classed as functional.
Conditions: not given
GENTAMICIN: the MIC was 32 µg/mL.

On to `O=C(O)c1cn(C2CC2)c2cc(N3CCNCC3)c(F)cc2c1=O` [CIPROFLOXACIN], for which the MIC was 1 µg/mL (≈ 3.02 µM).

A further test relates to Pseudomonas aeruginosa. Description: Antimicrobial activity against Pseudomonas aeruginosa isolate 1352c from fibrosis patient by Etest. It is filed as functional.
Conditions: not given
GENTAMICIN registered an MIC above 32 µg/mL.

Another test deals with Pseudomonas aeruginosa. Kind of test: Antimicrobial activity against Pseudomonas aeruginosa R70 Etest.
Conditions: not given
The test is classed as functional.
In turn, GENTAMICIN had an MIC of 1 µg/mL.

The test system of a further test is Pseudomonas aeruginosa. Description: Antimicrobial activity against Pseudomonas aeruginosa isolate 17145c from fibrosis patient by Etest. It is filed as functional.
Conditions: not given
Take GENTAMICIN: the MIC is 32 µg/mL.

`O=C(O)c1cn(C2CC2)c2cc(N3CCNCC3)c(F)cc2c1=O` [CIPROFLOXACIN] gave an MIC of 4 µg/mL (≈ 12.1 µM).

A further test relates to Pseudomonas aeruginosa. Description: Antimicrobial activity against Pseudomonas aeruginosa isolate 16008 from fibrosis patient by Etest.
Conditions: not given
The test is classed as functional.
GENTAMICIN showed an MIC of 16 µg/mL.

The compound `O=C(O)c1cn(C2CC2)c2cc(N3CCNCC3)c(F)cc2c1=O` [CIPROFLOXACIN] yielded an MIC of 4 µg/mL (≈ 12.1 µM).

The subject of the next test is Pseudomonas aeruginosa. Kind of test: Antimicrobial activity against Pseudomonas aeruginosa isolate 12102 from fibrosis patient by Etest. It is filed as functional.
Conditions: not given
GENTAMICIN showed an MIC of 4 µg/mL.

The next test concerns Pseudomonas aeruginosa. Kind of test: Antimicrobial activity against Pseudomonas aeruginosa isolate 1726 from fibrosis patient by Etest. The test is classed as functional.
Conditions: not given
GENTAMICIN yielded an MIC of 2 µg/mL.

The next test deals with Pseudomonas aeruginosa. Kind of test: Antimicrobial activity against Pseudomonas aeruginosa R20 Etest. The test is classed as functional.
Conditions: not given
Compound GENTAMICIN yielded an MIC below 0.25 µg/mL.

`O=C(O)c1cn(C2CC2)c2cc(N3CCNCC3)c(F)cc2c1=O` [CIPROFLOXACIN] had an MIC of at most 0.12 µg/mL.

For another test, the system named is Pseudomonas aeruginosa. Description: Antimicrobial activity against Pseudomonas aeruginosa 1405-con D2 by Etest. The test is classed as functional.
Conditions: not given
The compound GENTAMICIN returned an MIC of 2 µg/mL.

In the next test the test system is Pseudomonas aeruginosa. Kind of test: Antimicrobial activity against Pseudomonas aeruginosa isolate 1712c from fibrosis patient by Etest.
Conditions: not given
It is filed as functional.
Compound GENTAMICIN had an MIC above 32 µg/mL.

Compound `O=C(O)c1cn(C2CC2)c2cc(N3CCNCC3)c(F)cc2c1=O` [CIPROFLOXACIN] returned an MIC of 4 µg/mL (≈ 12.1 µM).

A further test concerns Pseudomonas aeruginosa. Description: Antimicrobial activity against Pseudomonas aeruginosa isolate 1248c from fibrosis patient by Etest. The test is classed as functional.
Conditions: not given
For the compound GENTAMICIN, the MIC was above 32 µg/mL.

The compound `O=C(O)c1cn(C2CC2)c2cc(N3CCNCC3)c(F)cc2c1=O` [CIPROFLOXACIN] yielded an MIC of 4 µg/mL (≈ 12.1 µM).

Another test deals with Pseudomonas aeruginosa. Description: Antimicrobial activity against Pseudomonas aeruginosa isolate 3149 from fibrosis patient by Etest.
Conditions: not given
It is filed as functional.
For the compound GENTAMICIN, the MIC is above 32 µg/mL.

Compound `O=C(O)c1cn(C2CC2)c2cc(N3CCNCC3)c(F)cc2c1=O` [CIPROFLOXACIN] returned an MIC above 8 µg/mL.

In a further test the test system is Pseudomonas aeruginosa. Description: microbe, parasite or virus in culture. Particulars: 2779-con.
Description: Antimicrobial activity against Pseudomonas aeruginosa 2779-con by Etest
In turn, `O=C(O)c1cn(C2CC2)c2cc(N3CCNCC3)c(F)cc2c1=O` [CIPROFLOXACIN] showed an MIC of at most 0.12 µg/mL.

For the next test, the system named is Pseudomonas aeruginosa. Kind of test: Antimicrobial activity against Pseudomonas aeruginosa isolate 1240 from fibrosis patient by Etest. The test is classed as functional.
Conditions: not given
As for GENTAMICIN, the MIC was 2 µg/mL.

The subject of a further test is Pseudomonas aeruginosa. Kind of test: Antimicrobial activity against Pseudomonas aeruginosa isolate 12142c from fibrosis patient by Etest.
Conditions: not given
It is filed as functional.
The compound GENTAMICIN came in with an MIC above 32 µg/mL.

`O=C(O)c1cn(C2CC2)c2cc(N3CCNCC3)c(F)cc2c1=O` [CIPROFLOXACIN] gave an MIC of 4 µg/mL (≈ 12.1 µM).

Another test deals with Pseudomonas aeruginosa. Description: Antimicrobial activity against Pseudomonas aeruginosa isolate 1495c from fibrosis patient by Etest. It is filed as functional.
Conditions: not given
In turn, GENTAMICIN returned an MIC above 64 µg/mL.

In turn, `O=C(O)c1cn(C2CC2)c2cc(N3CCNCC3)c(F)cc2c1=O` [CIPROFLOXACIN] showed an MIC of 4 µg/mL (≈ 12.1 µM).

The subject of a further test is Pseudomonas aeruginosa. Kind of test: Antimicrobial activity against Pseudomonas aeruginosa Z799/61 by Etest. It is filed as functional.
Conditions: not given
For the compound GENTAMICIN, the MIC was below 0.12 µg/mL.

In turn, `O=C(O)c1cn(C2CC2)c2cc(N3CCNCC3)c(F)cc2c1=O` [CIPROFLOXACIN] had an MIC of at most 0.12 µg/mL.

A further test has as its system Pseudomonas aeruginosa. Kind of test: Antimicrobial activity against Pseudomonas aeruginosa isolate 1333c from fibrosis patient by Etest. It is filed as functional.
Conditions: not given
For the compound GENTAMICIN, the MIC was above 32 µg/mL.

For a further test, the system named is Pseudomonas aeruginosa. Kind of test: Antimicrobial activity against Pseudomonas aeruginosa AHP Etest.
Conditions: not given
It is filed as functional.
Turning to GENTAMICIN, the MIC is below 0.12 µg/mL.

Take `O=C(O)c1cn(C2CC2)c2cc(N3CCNCC3)c(F)cc2c1=O` [CIPROFLOXACIN]: the MIC was at most 0.12 µg/mL.

The subject of another test is Pseudomonas aeruginosa. Description: Antimicrobial activity against Pseudomonas aeruginosa isolate 15110c from fibrosis patient by Etest. The test is classed as functional.
Conditions: not given
GENTAMICIN: the MIC was above 32 µg/mL.

A further test has as its system Pseudomonas aeruginosa. Description: Antimicrobial activity against Pseudomonas aeruginosa isolate 1253 from fibrosis patient by Etest. The test is classed as functional.
Conditions: not given
GENTAMICIN: the MIC was determined as 16 µg/mL.

Another test concerns Pseudomonas aeruginosa. Description: Antimicrobial activity against Pseudomonas aeruginosa isolate 1529c from fibrosis patient by Etest. It is filed as functional.
Conditions: not given
Compound GENTAMICIN showed an MIC above 32 µg/mL.

The next test deals with Pseudomonas aeruginosa. Kind of test: Antimicrobial activity against Pseudomonas aeruginosa isolate 1530c from fibrosis patient by Etest. It is filed as functional.
Conditions: not given
GENTAMICIN had an MIC of 32 µg/mL.

The test system of the next test is Pseudomonas aeruginosa. Kind of test: Antimicrobial activity against Pseudomonas aeruginosa isolate 1247c from fibrosis patient by Etest.
Conditions: not given
The test is classed as functional.
In the case of GENTAMICIN, the MIC is above 32 µg/mL.

On to `O=C(O)c1cn(C2CC2)c2cc(N3CCNCC3)c(F)cc2c1=O` [CIPROFLOXACIN], for which the MIC amounted to 4 µg/mL (≈ 12.1 µM).

The next test deals with Pseudomonas aeruginosa. Kind of test: Antimicrobial activity against Pseudomonas aeruginosa isolate 13167 from fibrosis patient by Etest. It is filed as functional.
Conditions: not given
In the case of GENTAMICIN, the MIC amounted to 32 µg/mL.

A further test deals with Pseudomonas aeruginosa. Description: Antimicrobial activity against Pseudomonas aeruginosa isolate 1693c from fibrosis patient by Etest. It is filed as functional.
Conditions: not given
As for GENTAMICIN, the MIC worked out at 16 µg/mL.

In turn, `O=C(O)c1cn(C2CC2)c2cc(N3CCNCC3)c(F)cc2c1=O` [CIPROFLOXACIN] came in with an MIC of 1 µg/mL (≈ 3.02 µM).

The next test relates to Pseudomonas aeruginosa. Description: Antimicrobial activity against Pseudomonas aeruginosa isolate 15107 from fibrosis patient by Etest. It is filed as functional.
Conditions: not given
GENTAMICIN returned an MIC above 32 µg/mL.

Source of the values: ChEMBL document CHEMBL1255447, “Efflux pumps, OprD porin, AmpC beta-lactamase, and multiresistance in Pseudomonas aeruginosa isolates from cystic fibrosis patients” (2010).
